Data on nine molecules can be found in patent US7063844B2, “Presentation of hydrophobic antigens to T-cells by CD1 molecules” (The Brigham and Women's Hospital, Inc., priority 1992, dated 2006).

Like-named read-outs stand apart in the source and are kept apart here.

The subject of one test is T-cell line DN1. It is filed as cell-based, human. The note with it: CD1+ APCs (GM-CSF- and IL-4-treated monocytes).
For test [1] the following is noted: in vivo; cited from earlier work.
Test [2] concerns peripheral blood monocytes. Nature of the test: CD1 expression on cytokine-cultured monocytes, flow cytometry. In kind it is cell-based, human. The note with it: for expression of CD1a, CD1b and CD1c on monocytes: monocytes cultured with cytokine, 60 hours. In general terms: A flow cytometer gives signals particle by particle.
The subject of the next test is T-cell line LDN4. Nature of the test: Proliferation of CD1b-restricted line LDN4. It is filed as cell-based, human.
The subject of the next test is T-cell line BDN2. In kind it is cell-based, human.
Test [3] deals with T-cell lines SP-F3, CP.1.15, BK6. Put plainly: Proliferation of further T-cell lines to test mitogenicity (SP-F3, CP.1.15, BK6). It is filed as cell-based, human.
A further test deals with T-cell line DG.1. It is filed as cell-based, human. The note with it: CD1+ PBMCs from HLA-DR7 positive individual as APCs.
Another test has as its system T-cell line DN6. Put plainly: Proliferation assay, CD1c-restricted line DN6. In kind it is cell-based, human. The note with it: CD1+ APCs.
The test system of a further test is T-cell line OGD1. Put plainly: Proliferation assay, TCR γδ+ line OGD1. It is filed as cell-based, human. The note with it: activated monocytes, 3 day assay.
Another test deals with T-cell line OAB8. Put plainly: Proliferation assay, CD8+ TCR αβ+ line OAB8. It is filed as cell-based, human. The note with it: mycolic acid at 1 μg/ml.

For 6,6-trehalose dimycolate, in the test with T-cell line DN1, the “proliferative response of T-cell line DN1 to antigen” value is reported as “stimulated the proliferation”. Moreover, in test [1], the antibody formation result is recorded as “enhance antibody formation”; the “nonspecific immunity to bacterial infections and tumors” value is on record as “stimulate nonspecific immunity”.
In the case of `CCCCCCCCCCCCCCCCCCCCCC(=O)OC[C@H]1O[C@H](O[C@H]2O[C@H](COC(=O)CCCCCCCCCCCCCCCCCCCCC)[C@@H](O)[C@H](O)[C@H]2O)[C@H](O)[C@@H](O)[C@@H]1O` [trehalose dibehanate], the “proliferative response of T-cell line DN1 to antigen” value in the test with T-cell line DN1 is listed as “no stimulation”.
On to “GM-CSF: granulocyte/monocyte colony stimulating factor used alone”, for which the “expression of CD1a, CD1b and CD1c on monocytes” value in test [2] was “somewhat less”.
For the molecule lipoarabinomannan [LAM], the “proliferative response of LDN4 to antigen” value in the test on T-cell line LDN4 is “proliferated”; in the test on T-cell line LDN4 (listed as Lep LAM), “stimulated”; in the test with T-cell line LDN4 (listed as native LAM), “striking T-cell proliferation”. Also, in the test on T-cell line BDN2, the “response of BDN2 to antigen” value is “responded”.
With mycolic acid, the “proliferative response of SP-F3, CP.1.15 and BK6” value in [3] is “did not respond”. The mitogenicity entry in [3] (six T-cell lines tested) is recorded as “not mitogenic”. The “recognition by T-cell line DG.1 (proliferative response)” value in the test on T-cell line DG.1 is “recognized only by CD1b-restricted DN1 T-cells”. Besides, in the test on T-cell line DN6, the “recognition by T-cell line DN6 (proliferative response)” value is listed as “recognized only by CD1b-restricted DN1 T-cells”. Moreover, in the test on T-cell line OGD1, the “response of OGD1 to antigen” value was “recognized”. In addition, the “proliferative response of T-cell line DN1 to antigen” value in the test with T-cell line DN1 was “recognized”. Moreover, the “response of OAB8 to antigen” value with T-cell line OAB8 is “recognized”.
In the case of “mycolic acid-arabinogalactan-peptidoglycan [mAGP]”, in the test on T-cell line LDN4, the “proliferative response of LDN4 to antigen” value was “No response”.
In the case of phosphatidylinositol mannoside [PIM], in the test with T-cell line LDN4, the “proliferative response of LDN4 to antigen” value is “ten-fold more than media alone”.

B1: Il-10: cytokine strongly expressed in lepromatous lesions (protein, UniProt P22301 19-178, looked up)
Interleukin-10: SPGQGTQSENSCTHFPGNLPNMLRDLRDAFSRVKTFFQMKDQLDNLLLKESLLEDFKGYLGCQALSEMIQFYLEEVMPQAENQDPDIKAHVNSLGENLKTLRLRLRRCHRFLPCENKSKAVEQVKNAFNKLQEKGIYKAMSEFDIFINYIEAYMTMKIRN
B1: the “inhibition of the expression of CD1 on monocytes” value in test [2] (data not shown) is recorded as “could inhibit”.

B2: interferon-γ: cytokine, 100 U/ml (protein, UniProt P01579 24-161, looked up)
Interferon gamma: QDPYVKEAENLKKYFNAGHSDVADNGTLFLGILKNWKEESDRKIMQSQIVSFYFKLFKNFKDDQSIQKSVETIKEDMNVKFFNSNKKKRDDFEKLTNYSVTDLNVQRKAIHELIQVMAELSPAAKTGKRKRSQMLFRG
For the molecule B2, the “expression of CD1a, CD1b and CD1c on monocytes” value in test [2] is listed as “did not express significant levels”.
